Ten compounds from patent US20260265798A1, “Enzymes and Uses in Biocatalytic Halogenation of N-Heteroaryls Thereof” (Agency for Science, Technology and Research, priority 2022, published 2026) can be followed below.

Marks after values point to notes of the source that are not given here.

In one test the target is T1, NT-11 PrnC (Pseudomonas fluorescens, UniProt P95482).
T1 construct: made in house; host or cells: T7 Express E. coli (NEB), pET-28a(+)
T1 sequence (P95482 with tags, fused parts or gaps): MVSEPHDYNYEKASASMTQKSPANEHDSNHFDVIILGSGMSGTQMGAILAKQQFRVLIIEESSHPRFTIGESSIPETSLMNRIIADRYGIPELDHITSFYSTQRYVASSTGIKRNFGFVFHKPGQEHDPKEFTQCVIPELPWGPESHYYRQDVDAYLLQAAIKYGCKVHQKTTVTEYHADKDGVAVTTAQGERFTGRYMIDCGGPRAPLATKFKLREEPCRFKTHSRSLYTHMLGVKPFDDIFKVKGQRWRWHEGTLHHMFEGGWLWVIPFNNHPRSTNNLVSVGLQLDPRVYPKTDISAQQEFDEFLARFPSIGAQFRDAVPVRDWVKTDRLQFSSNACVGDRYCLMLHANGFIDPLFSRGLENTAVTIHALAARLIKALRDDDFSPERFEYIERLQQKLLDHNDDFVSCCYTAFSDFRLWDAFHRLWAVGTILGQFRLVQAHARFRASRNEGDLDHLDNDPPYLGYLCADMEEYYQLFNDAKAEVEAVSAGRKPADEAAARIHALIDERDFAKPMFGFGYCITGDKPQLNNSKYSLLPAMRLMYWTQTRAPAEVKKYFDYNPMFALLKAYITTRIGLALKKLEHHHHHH
As to the kind of experiment: NT-11 PrnC-catalyzed halogenation, analytical scale biotransformation (in-vitro regioselective chlorination, substrate scope). Type of test: biochemical. The settings on record: in-vitro chlorination by PrnC under optimized conditions; substrate 0.5 mM, MgCl2 10 mM, overnight 30° C.; HPLC. On the procedure:
NT-11 PrnC-Catalyzed halogenation. In a solution containing the pyrrolic derivative starting material (0.5 mM), MgCl2/MgBr2 (10 mM), glucose (5.0 mM), FAD ([…]), NT-11 PrnC (12.5 μM), Fre ([…]) and Gdhi (2.5 μM) in 10 mM potassium phosphate buffer, NADH (2.5 mM) was added to a total volume of 200 μL. After an overnight incubation of 30° C. and orbital shaking at 350 rpm, reactions were quenched with an equivalent volume of MeOH, pelleted by centrifugation (15000 rpm for 10 min) and the supernatant analyzed by HPLC-MS using the analytical HPLC method.
Analytical HPLC Method. 10 μL of the supernatant injected onto SecurityGuard™ column (KJ0-4282) with a (4.0 mm×3.0 mm) guard cartridge before separation using a Phenomenex Gemini® C18 analytical column (5 μm packing, 150 mm×4.6 mm). Gradient starting conditions of 5% MeCN/H2O (+0.1% Formic acid) were held for 1 min before development into 50% MeCN/H2O over 3 min, followed by development into 95% MeCN/H2O over 3 min. 95% MeCN/H2O was held for 1 min before equilibration back to starting conditions over 1 min. Starting conditions was held for 1 min followed by another 2 min post-run. Flow rates were kept constant at 1 mL/min. Column temperature was kept constant at 30° C. UV absorbance was detected at 220 nm, 254 nm and 210 nm throughout the run.
A substrate scope of the enzyme by the application of the Prnc enzyme on a list of structural diverse pyrrolic substrates is determined. An optimized co-factors regeneration protocol was used to regulate the generation of the activated halogen which is captured by the Prnc enzyme into the active site for the bioconversion. Reaction is conducted at ambient temperature of 30° C., in an aqueous non-toxic buffer solution with an environmentally friendly chloride source.

The next test has as its target T2, PrnC (Pseudomonas fluorescens, UniProt P95482).
T2 construct: made in house; host or cells: T7 Express E. coli (NEB), pET-28a(+)
T2 sequence (P95482 with tags, fused parts or gaps): T1 sequence (P95482 with tags, fused parts or gaps)
As to the kind of experiment: Optimization study of PrnC biocatalyst enzymatic assay conditions on the native substrate 1. Type of test: biochemical. Here is the method: The conditions in the table above would be referred to as the standard conditions of the present invention; i.e. flavin-dependent halogenase (4 mol %), flavin adenine dinucleotide (FAD) (0.2 mol %), E. coli flavin reductase (Fre) (0.5 mol %), nicotinamide adenine dinucleotide hydrogen (NADH) (5.0 equiv), glucose 1-dehydrogenase (GdHi) (0.5 mol %), monosaccharide (10.0 equiv), halogen (20.0 equiv), buffer (10 mM, pH 7.4).
With the purified biocatalyst PrnC enzyme in hand, a preliminary optimization study of the enzymatic assay conditions was performed on the native substrate monodechloroaminopyrrolnitrin (1). The enzyme assays were carried out for 18 h with orbital shaking at 300 rpm and a temperature of 30° C. In addition to the substrate and PrnC, the reaction mixture contained FAD (0.1 equivalents relative to PrnC), NADH and E. coli flavin reductase (Fre), needed to generate FADH2 for the halogenation reaction. In initial assays, even using a super stoichiometric amount of NADH (5.0 equiv) (entry 1) only yielded 18% conversion to the desired product.

`Clc1c[nH]cc1-c1cnc2ccccc2c1` [compound 14, 3-(4-chloro-1H-pyrrol-3-yl) quinoline] showed a conversion yield on NT-11 PrnC of 63%. On the same count and under the same terms, then `Oc1ccccc1-c1c[nH]cc1Cl` [compound 7, 2-(4-chloro-1H-pyrrol-3-yl)phenol], with 21%. On to `Clc1c[nH]cc1-c1ccccc1` [compound 8, 3-chloro-4-phenyl-1H-pyrrole], for which, on NT-11 PrnC, the conversion yield is reported as 77%. `Nc1c(Cl)cccc1-c1c[nH]cc1Cl` [compound 2, 2-chloro-6-(4-chloro-1H-pyrrol-3-yl)aniline] came in with a conversion yield at NT-11 PrnC of 55%. For the same compound, the “conversion of 2 (%)” value on PrnC (entry 1: 2 mol% FAD (10x), no GdHi & glucose, 18 h, 30° C.) is recorded as 18%; at PrnC (entry 2: 2 mol% FAD (10x), GdHi regen), 16%; at PrnC (entry 4: 1 mol% of Fre (2x)) it was 72%; on PrnC (entry 5: 0.05 Equiv NADH (Less 100x)) it was 32%; at PrnC (entry 6: 0.05 Equiv NADH (Less 100x) + 8 mol% PrnC (2x)), 53%; on PrnC (entry 7: 0.05 Equiv NADH (Less 100x) in Tris HCl buffer), 49%. In addition, the “conversion of 2 (%)” value at PrnC (standard conditions: PrnC 4 mol%, GdHi 0.5 mol%, FAD 0.2 mol%, Fre 0.5 mol%, NADH 5.0 equiv, glucose 10.0 equiv, MgCl2 20.0 equiv, phosphate buffer 10 mM pH 7.4) is reported as 91^b %. With `Nc1ccccc1-c1cc(Cl)c[nH]1` [compound 11, 2-(4-chloro-1H-pyrrol-2-yl)aniline], the conversion yield on NT-11 PrnC is reported as 68%. Compound `Clc1c[nH]cc1-c1cccnc1` [compound 9, 3-(4-chloro-1H-pyrrol-3-yl)pyridine] came in with a conversion yield at NT-11 PrnC of 73%. On the same count and under the same terms, the figure for `CC(=O)Nc1ccccc1-c1c[nH]cc1Cl` [compound 3, N-(2-(4-chloro-1H-pyrrol-3-yl)phenyl)acetamide] is 18%; for `COc1ccccc1-c1c[nH]cc1Cl` [compound 6, 3-chloro-4-(2-methoxyphenyl)-1H-pyrrole] it is 41%; for `Cc1ccccc1-c1c[nH]cc1Cl` [compound 5, 3-chloro-4-(o-tolyl)-1H-pyrrole] it is 22%.

At NT-11 PrnC, `Nc1c(Cl)cccc1-c1[nH]ncc1Cl` [compound 12, 2-chloro-6-(4-chloro-1H-pyrazol-5-yl)aniline] registered a conversion yield of 14%.
